Assay results: US10793557B2, “Sting agonist compounds” (Merck Sharp & Dohme Corp., priority 2018, dated 2020)

Legend:
full-length HAQ STING = biological target: T1, full-length HAQ STING (Homo sapiens, UniProt Q86WV6, G230A/H232R/R293Q/R71H); test: 3H-cGAMP filtration binding assay (HAQ STING); conditions: competition with tritiated cGAMP, HAQ STING membrane
T1 construct: AviTag (after GG linker) (C); HRV3C cleavage site (after GS linker) (C); HIS8 (C); made in house; host or cells: Trichoplusia ni (Hi-Five) insect cells infected with baculovirus (virus generated and amplified in Sf21 cells); used as a washed membrane preparation
Method in brief: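 Hi-Five (T. ni) membranes overexpressing the STING variant (2.2 ug/ml working) preincubated with compound 60 min at RT in PBS, then [3H]cGAMP (8 nM working stock) added for 60 min at RT. Bound radioactivity captured on GF/B filters and counted by scintillation; EC50 from 4-parameter fit of control-normalized activity.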

full-length WT STING = biological target: T2, full-length WT STING (Homo sapiens, UniProt Q86WV6, H232R); test: 3H-cGAMP filtration binding assay (WT STING); conditions: competition with tritiated cGAMP, WT STING membrane
T2 construct: AviTag (after gg linker) (C); HRV3C cleavage site (after gs linker) (C); HIS8 (C); made in house; host or cells: Trichoplusia ni (Hi-Five) insect cells infected with baculovirus (virus generated and amplified in Sf21 cells); used as a washed membrane preparation
Method in brief: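 Competitive filtration binding of [3H]cGAMP (16 nM working stock) to T. ni membranes overexpressing full-length WT human STING, 60 min at RT in PBS. Bound radioactivity counted after GF/B filtration; 10-point 1:3 titration, EC50 from 4-parameter fit after control normalisation.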

[1] = tested on: secretion of interferon-beta from THP1 cells; test: IFN-β secretion in THP1 cell culture (5 h); type: cell-based; conditions: Homo sapiens, THP-1, 5 h, compound at 3 uM, 30 uM cGAMP = 100%, read-out: % Effect relative to 2′3′-cGAMP (@ 3 uM)
Method in brief: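 Thawed THP1 cells (0.8×10^6/mL, RPMI with 0.5% FBS) exposed to compounds 1.5–30000 nM (0.3% DMSO) for 5 h at 37 °C. Supernatant IFN-β quantified by AlphaLISA. Percent effect normalised to 30 uM cGAMP and DMSO controls; EC50 from 4-parameter fit.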

T1 sequence (Q86WV6 with tags, fused parts or gaps R71H/G230A/H232R/R293Q): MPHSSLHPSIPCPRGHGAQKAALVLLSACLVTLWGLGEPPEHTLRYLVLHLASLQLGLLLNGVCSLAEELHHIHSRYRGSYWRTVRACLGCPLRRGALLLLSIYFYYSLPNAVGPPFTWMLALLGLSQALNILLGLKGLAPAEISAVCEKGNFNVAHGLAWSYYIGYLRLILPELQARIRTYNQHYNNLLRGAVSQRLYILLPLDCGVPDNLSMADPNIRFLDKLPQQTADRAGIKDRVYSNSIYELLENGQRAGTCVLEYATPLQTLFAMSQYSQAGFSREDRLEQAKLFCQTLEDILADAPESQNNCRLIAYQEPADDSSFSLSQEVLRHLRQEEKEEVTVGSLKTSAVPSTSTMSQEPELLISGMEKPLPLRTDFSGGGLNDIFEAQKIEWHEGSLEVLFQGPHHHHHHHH
T2 sequence (Q86WV6 with tags, fused parts or gaps H232R): as the sequence (Q86WV6 with tags, fused parts or gaps R71H/G230A/H232R/R293Q) above, with H71R, A230G, Q293R counted along it

Row | EC50 (full-length HAQ STING) | EC50 (full-length WT STING) | Structure (SMILES) | activation at 3 µM [1]
1 | 133 nM | 756 nM | COc1cc2sc(CC[C@H](C)C(=O)O)cc2c(F)c1OCCCOc1c(O)cc2sc(C(=O)C[C@H](C)C(=O)O)cc2c1Cl [Example 186, (S)-4-(5-(3-((2-((S)-3-carboxybutyl)-4-fluoro-6-methoxybenzo[b]thiophen-5-yl)oxy)propoxy)-4-chloro-6-hydroxybenzo[b]thiophen-2-yl)-2-methyl-4-oxobutanoic acid] | 56%
2 | 4 nM | 46 nM | COc1cc2sc(C(=O)C[C@H](C)C(=O)O)cc2c(Cl)c1OCCCOc1c(O)cc2sc(C(=O)C[C@H](C)C(=O)O)cc2c1Cl [Example 187, (S)-4-(5-(3-((2-((S)-3-carboxybutanoyl)-4-chloro-6-hydroxybenzo[b]thiophen-5-yl)oxy)propoxy)-4-chloro-6-methoxybenzo[b]thiophen-2-yl)-2-methyl-4-oxobutanoic acid] | 128%
3 | 1 nM | 1 nM | COc1cc2sc(C(=O)C[C@H](C)C(=O)O)cc2c(F)c1OCCCOc1c(O)cc2sc(C(=O)C[C@H](C)C(=O)O)cc2c1F [Example 188, (S)-4-(5-(3-((2-((S)-3-carboxybutanoyl)-4-fluoro-6-hydroxybenzo[b]thiophen-5-yl)oxy)propoxy)-4-fluoro-6-methoxybenzo[b]thiophen-2-yl)-2-methyl-4-oxobutanoic acid] | 104%
4 | 1 nM | 2 nM | COc1cc2sc(C(=O)C[C@H](C)C(=O)O)cc2cc1OCCCOc1c(O)cc2sc(C(=O)C[C@H](C)C(=O)O)cc2c1F [Example 189, (S)-4-(5-(3-((2-((S)-3-carboxybutanoyl)-4-fluoro-6-hydroxybenzo[b]thiophen-5-yl)oxy)propoxy)-6-methoxybenzo[b]thiophen-2-yl)-2-methyl-4-oxobutanoic acid] | 111%
5 | 1 nM | 2 nM | COc1cc2sc(C(=O)C[C@H](C)C(=O)O)cc2c(Cl)c1OCCCOc1c(O)cc2sc(C(=O)C[C@H](C)C(=O)O)cc2c1F [Example 190, (S)-4-(5-(3-((2-((S)-3-carboxybutanoyl)-4-chloro-6-methoxybenzo[b]thiophen-5-yl)oxy)propoxy)-4-fluoro-6-hydroxybenzo[b]thiophen-2-yl)-2-methyl-4-oxobutanoic acid] | 126%
